Consider five compounds from patent US20100130515A1, “Polymorphs and solvates of a pharmaceutical and method of making” (BIOGEN IDEC INC., priority 2007, published 2010).

Data set [1] is described as follows: Relative stability of forms A and B by vapour diffusion experiment (XRPD). The settings on record: NMP vapour, room temperature; for relative stability of the polymorphs: intimate mixture of forms A and B, followed by XRPD. It counts as physicochemical. As for the experimental part:
The relative stabilities of the forms A and B was determined by a vapour diffusion experiment. Approximately equal amounts of the two forms were ground together to produce an intimate mixture. The mixture was packed into a silicon 510-cut recessed wafer XRPD holder and the XRPD of the mixture determined. The holder was then placed in a covered dish containing NMP (a known solvent 1) at room temperature. The mixture was re-examined from time to time to monitor any changes in the XRPD pattern.
The traces from bottom to top in FIG. 8 were recorded initially, at 24 hours, at 3 days, at 1 week, at 10 days, and at 23 days; the topmost traces are a form A reference and a form B reference.

The subject of the next data set is Parkinsonian patients. The following applies: cited from earlier work.
Data set [2] can be described thus: Relative stability of forms D and H by vapour diffusion experiment (XRPD). The data set is classed as physicochemical. The settings on record: inferred from the higher desolvation temperature, XRPD results inconclusive. The source says: The relative stabilities of Forms D and H was investigated by a vapour diffusion experiment. Approximately equal amounts of the two forms were combined to produce an intimate mixture. The mixture was packed into a silicon XRPD holder and the XRPD of the mixture determined. The holder was then placed in a covered dish containing THF:NMP approx. 90:10 v/v at room temperature. The mixture was re-examined from time to time to monitor any changes in the XRPD pattern.
There was been no significant change in the XRPD traces over 12 days.

The next data set concerns cataleptic responses. The settings on record: cited from earlier work.

Take `Cc1cc(Cn2nnc3c(-c4ccco4)nc(N)nc32)ccc1N` [Form A, 3-(4-amino-3-methylbenzyl)-7-(furan-2-yl)-3H-[1,2,3]triazolo[4,5-d]pyrimidin-5-amine]: the “relative stability of the polymorphs” value is reported as “more stable polymorph” in data set [1] and “more thermodynamically more stable” in data set [1] (listed as form A).

Take `Cn1c(=O)c2[nH]cnc2n(C)c1=O` [theophylline, 1,3-dimethylxanthine]: in the data set with Parkinsonian patients (15 Parkinsonian patients, up to 12 weeks, 150 mg/day), the “mean objective disability scores” value is “significant improvements”. The “patients reporting moderate or marked subjective improvement” value in the data set on Parkinsonian patients (of 15 Parkinsonian patients, up to 12 weeks, 150 mg/day) is reported as 11. Besides, the serum theophylline levels with Parkinsonian patients (slow release oral preparation 150 mg/day, after one week) was 4.44 mg/L.

For `Cc1cc(Cn2nnc3c(-c4ccco4)nc(N)nc32)ccc1N` [Form H, 3-(4-amino-3-methylbenzyl)-7-(furan-2-yl)-3H-[1,2,3]triazolo[4,5-d]pyrimidin-5-amine], the “relative stability of the THF solvates” value in data set [2] is “more likely to be the stable form”.

As to `Cc1cc(Cn2nnc3c(-c4ccco4)nc(N)nc32)ccc1N` [Form B, 3-(4-amino-3-methylbenzyl)-7-(furan-2-yl)-3H-[1,2,3]triazolo[4,5-d]pyrimidin-5-amine], the “time point by which the XRPD peaks characteristic of Form B disappear completely” value in data set [1] (mixture of forms A and B) is at most 23 days.

As to `CCCn1c(=O)c2c(nc(/C=C/c3ccc(OC)c(OC)c3)n2C)n(CCC)c1=O` [KF 17837, E-8-(3,4dimethoxystyryl)-1,3-dipropyl-7-methylxanthine], in the data set with cataleptic responses (in vivo), the “anticataleptic effects of a subthreshold dose of L-DOPA plus benserazide” value is “potentiated”; the “catalepsy induced by haloperidol and reserpine” value is “reduced”. Also, the “cataleptic responses induced by intracerebroventricular CGS 21680” value in the data set on cataleptic responses (oral administration) was “significantly ameliorated”.
